Columns and labels:
[1] = system: scratching behaviors in FADS mice; test: Scratching behaviors in FADS mice upon single systemic administration of CP4715; assay type: in vivo, mouse (FADS, Nestin-cre/Ikk2ff); conditions: 53.7 μmol/kg i.p., FIG. 2
Text: Nestin-cre transgenic mice were crossed with IKK2^ff mice to prepare Nestin-cre/Ikk2^ff mice specifically lacking IKK2 in their facial skin fibroblasts (Nunomura S, et al. J Invest Dermatol. 139:1274-1283, 2019). These mice inevitably develop atopic dermatitis-like rash limited to the face and intense itchy symptoms, and were therefore designated as Facial Atopic Dermatitis with Scratching (FADS) mice. […] For evaluation of the prophylactic or therapeutic agent of the present invention, FADS mice at 3 to 4 weeks of age or older were used because of showing spontaneous scratching behaviors. […]
(§1) FADS mice were acclimated for 20 minutes to the environment of a recording cage, and then recorded with a video camera. The recorded videos were replayed, and scratching behaviors were counted assuming that hind paw scratching to the face and the subsequent movement of toe licking or paw lowering to the ground were regarded as one cycle of scratching behavior.
Prior to CP4715 administration, FADS mice were recorded for 60 minutes and then allowed to rest for 30 minutes. […] Mice administered with 0.3 mL of PBS containing an equal amount of the diluent as calculated based on the body weight were used as a control group.
The mice were recorded for 80 minutes immediately after drug administration. […]

αvβ3 integrin = conditions: cited from earlier work
integrin αvβ3 = biological target: T1, integrin αvβ3 (Homo sapiens, UniProt P05106+P06756); test: Inhibition of periostin-dependent adhesion of SW480 cells expressing integrin αvβ3; assay type: cell-based; conditions: immobilized recombinant human periostin, FIG. 6
T1 construct: SW480 cells, a human colon cancer cell line not expressing integrin β3; expressed in transfected cells; host or cells: SW480 cells (human colon cancer) stably expressing human integrin β3
Description: For use in cell adhesion experiments, SW480 cells, a human colon cancer cell line not expressing integrin β3, were genetically engineered to stably express human integrin β3 (Nanri Y, et al. Am J Respir Cell Mol Biol. 62:204-216, 2020). The compounds shown in Table 1 were examined for their inhibitory activity against adhesion between integrin αvβ3 and periostin according to the following procedures. First, a 96-well plate was treated with 10 μg/mL recombinant human periostin (Bio-Techne) at 4 °C for 16 hours to immobilize periostin. The SW480 cells expressing integrin αvβ3 (5×10^4 cells) were reacted at room temperature for 15 minutes with the above compounds at 0.001, 0.01, 0.1 and 1 μM in serum-free DMEM (Dulbecco's Modified Eagle Medium) containing 0.5% bovine serum albumin and 0.25 mM MnCl2. A group receiving no compound was used as a control. The reacted cell suspensions were added to separate wells of the above human periostin-immobilized plate, and the plate was centrifuged at 10×g for 5 minutes and then cultured at 37 °C for 60 minutes. Then, after the adhered cells were washed to remove unbound cells, the adhered cells were fixed with 1% formaldehyde and stained with 0.5% crystal violet. The fixed and stained cells were solubilized with 0.2% Triton X-100 and measured for absorbance at 595 nm. The absorbance of the control (i.e., the group receiving no compound) was set to 0% inhibition. […] Cell adhesion in this test system is periostin-dependent, and a compound inhibiting this cell adhesion can be referred to as a periostin receptor antagonist.

[2] = system: scratching behaviors in FADS mice; test: Scratching behaviors in FADS mice upon single systemic administration of αvβ3 integrin inhibitors; assay type: in vivo, mouse (FADS, Nestin-cre/Ikk2ff)
Text: (§2) Nestin-cre transgenic mice were crossed with IKK2^ff mice to prepare Nestin-cre/Ikk2^ff mice specifically lacking IKK2 in their facial skin fibroblasts (Nunomura S, et al. J Invest Dermatol. 139:1274-1283, 2019). These mice inevitably develop atopic dermatitis-like rash limited to the face and intense itchy symptoms, and were therefore designated as Facial Atopic Dermatitis with Scratching (FADS) mice. […] For evaluation of the prophylactic or therapeutic agent of the present invention, FADS mice at 3 to 4 weeks of age or older were used because of showing spontaneous scratching behaviors. It should be noted that in this Example section, the above compound of formula (I) (more particularly “CP4715”) was used as the prophylactic or therapeutic agent of the present invention.
as §1
Prior to the administration of the above αvβ3 integrin inhibitors, FADS mice were recorded for 60 minutes with a video camera and then allowed to rest for 15 minutes. The compounds except for GLPG-0187 were each dissolved at 89.5 mM in a diluent (physiological saline containing 50% DMSO and 89.5 mM HCL), from which an amount corresponding to 53.7 μmol/kg per mouse was then taken and diluted with 0.3 mL of PBS, and then administered intraperitoneally. […] Mice administered with 0.3 mL of PBS containing an equal amount of the diluent as calculated based on the body weight were used as a control group.
The mice were recorded for 60 minutes with a video camera immediately after administration of the above αvβ3 integrin inhibitors. The number of scratchings before administration was used as a baseline, and % change from the baseline after administration was calculated for each compound. For statistical analysis, paired t-test was used. A P-value of less than 0.05 was considered to be statistically significant. The effect of an inhibitor whose mean change from the baseline was −65% or more at a P-value of less than 0.01 was expressed as “++”; the effect of an inhibitor whose mean change from the baseline was −60% or less at a P-value of less than 0.05 was expressed as “+”; and the effect of an inhibitor whose mean change from the baseline was −60% or less at a P-value of 0.05 or higher was expressed as “−.”

[3] = system: scratching behaviors in FADS mice; test: Scratching behaviors in FADS mice upon repeated systemic administration of CP4715; assay type: in vivo, mouse (FADS, Nestin-cre/Ikk2ff); conditions: at 1 week and 2 weeks after administration; 107.4 μmol/kg twice a day under the dorsal skin; Mann-Whitney's U-test vs diluent control; FIG. 1
Text: as §2
as §1, with “behavior. […]” for “behavior.”
At 1 week and 2 weeks after drug administration, the mice were recorded for 60 minutes and analyzed to calculate the number of scratchings per minute for evaluation. […]

[4] = system: glycoprotein (GP) IIb/IIIa receptor; conditions: cited from earlier work

T1 sequence (P06756 31-889 limits assumed): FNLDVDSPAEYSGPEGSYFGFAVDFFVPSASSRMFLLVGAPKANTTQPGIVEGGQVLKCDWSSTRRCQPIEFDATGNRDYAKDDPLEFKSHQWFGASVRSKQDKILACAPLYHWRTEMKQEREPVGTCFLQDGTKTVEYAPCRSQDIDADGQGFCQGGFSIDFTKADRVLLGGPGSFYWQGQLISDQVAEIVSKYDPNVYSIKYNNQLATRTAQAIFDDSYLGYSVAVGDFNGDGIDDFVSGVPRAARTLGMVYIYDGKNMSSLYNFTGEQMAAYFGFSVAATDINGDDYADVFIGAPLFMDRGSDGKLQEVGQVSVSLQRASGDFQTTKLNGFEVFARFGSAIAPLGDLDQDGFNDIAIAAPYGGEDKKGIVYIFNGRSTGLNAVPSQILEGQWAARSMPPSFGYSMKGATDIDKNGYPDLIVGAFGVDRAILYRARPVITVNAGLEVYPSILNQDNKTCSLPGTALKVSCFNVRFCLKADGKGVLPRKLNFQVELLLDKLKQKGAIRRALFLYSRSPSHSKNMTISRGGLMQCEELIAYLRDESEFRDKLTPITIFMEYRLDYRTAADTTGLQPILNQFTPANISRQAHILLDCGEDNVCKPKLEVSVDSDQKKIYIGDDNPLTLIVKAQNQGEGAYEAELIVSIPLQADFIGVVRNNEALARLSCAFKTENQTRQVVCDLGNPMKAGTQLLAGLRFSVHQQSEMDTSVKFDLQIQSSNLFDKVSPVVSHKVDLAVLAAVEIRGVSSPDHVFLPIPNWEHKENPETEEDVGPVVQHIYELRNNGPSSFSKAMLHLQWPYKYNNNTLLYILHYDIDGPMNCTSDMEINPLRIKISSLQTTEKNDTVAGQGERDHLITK
T1 sequence (P06756 891-1048 partner limits assumed): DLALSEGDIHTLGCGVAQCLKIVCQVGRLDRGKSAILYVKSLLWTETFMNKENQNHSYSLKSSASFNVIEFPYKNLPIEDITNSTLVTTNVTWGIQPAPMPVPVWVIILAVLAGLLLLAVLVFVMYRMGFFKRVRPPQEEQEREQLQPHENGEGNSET
T1 sequence (P05106 27-788): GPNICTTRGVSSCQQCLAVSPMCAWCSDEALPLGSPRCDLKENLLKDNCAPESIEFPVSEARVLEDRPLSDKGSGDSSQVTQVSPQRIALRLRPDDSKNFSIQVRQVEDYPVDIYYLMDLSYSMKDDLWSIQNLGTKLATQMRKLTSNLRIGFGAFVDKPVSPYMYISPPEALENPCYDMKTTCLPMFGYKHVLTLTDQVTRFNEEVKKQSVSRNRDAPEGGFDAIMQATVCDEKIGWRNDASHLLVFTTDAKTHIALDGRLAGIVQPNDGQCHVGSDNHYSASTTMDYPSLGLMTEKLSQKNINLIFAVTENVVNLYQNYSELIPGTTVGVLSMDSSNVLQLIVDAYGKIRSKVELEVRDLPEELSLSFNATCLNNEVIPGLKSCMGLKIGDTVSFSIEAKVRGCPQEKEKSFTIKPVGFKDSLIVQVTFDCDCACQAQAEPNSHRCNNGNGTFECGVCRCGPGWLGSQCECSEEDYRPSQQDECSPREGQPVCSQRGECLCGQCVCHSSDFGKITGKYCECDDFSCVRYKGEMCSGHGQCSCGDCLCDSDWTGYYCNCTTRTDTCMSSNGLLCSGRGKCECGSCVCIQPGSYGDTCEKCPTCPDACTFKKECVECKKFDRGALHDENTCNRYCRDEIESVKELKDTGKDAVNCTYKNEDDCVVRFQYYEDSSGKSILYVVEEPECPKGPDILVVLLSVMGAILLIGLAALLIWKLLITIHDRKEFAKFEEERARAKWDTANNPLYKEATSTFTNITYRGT

SMILES: COc1cc(C(=O)NC[C@H](NS(=O)(=O)c2ccccc2)C(=O)O)ccc1N1CCC(NC2=NCCCN2)CC1 [CP4715, (S)-3-(3-methoxy-4-(4-((1,4,5,6-tetrahydropyrimidin-2-yl)amino)piperidin-1-yl)benzamido)-2-(phenylsulfonamido)propanoic acid]
- time after administration until which the suppressive effect on scratching was sustained [1]: 60 min
- scratching behaviors (number of scratchings per minute) ([1]; at 20 minutes or later after administration, Mann-Whitney's U-test vs diluent control): significantly suppressed (P<0.05)
- antagonistic effect on αvβ3 integrin (αvβ3 integrin): antagonistic effect
- IC50 (integrin αvβ3; SW480 cells expressing human integrin β3, compounds at 0.001-1 μM, read-out: 50% inhibition concentration (IC50 value) for cell adhesion inhibitory activity): ≤ 1 nM
- cell adhesion inhibitory effect (in words) (integrin αvβ3; SW480 cells expressing integrin αvβ3): high
- % Change from baseline in the number of scratchings (mean ± standard error) ([2]; 53.7 μmol/kg i.p., single, 60 minutes after administration vs before administration): −68.0 ± 14.0%
- grade of effect on % change from the baseline in the number of scratchings ([2]; single i.p., 53.7 μmol/kg (GLPG-0187 5.37 μmol/kg), paired t-test): ++ (mean change from the baseline was −65% or more at a P-value of less than 0.01)
- scratching behaviors (number of scratchings per minute) [3]: significantly suppressed (P<0.05)
- antagonistic effect on GP IIb/IIIa receptor [4]: antagonistic effect

Source: patent publication US20260355192A1, “PROPHYLACTIC OR THERAPEUTIC AGENT FOR PERIOSTIN-MEDIATED DISEASE AND PRURITUS ASSOCIATED THEREWITH” (SAGA UNIVERSITY, priority 2022, published 2026)
